Measurements: patent US20050233942A1, “Oxygenated dibenzo-alpha-pyrone chromoproteins” (priority 2004, published 2005)
Values after ≈ are worked out from the molar mass of the structure shown.

Tests used:
[1] = test system: Fe-ADP-ascorbate induced lipid peroxidation (LPO) in rat brain; test: Inhibition of Fe-ADP-ascorbate induced lipid peroxidation (LPO) in rat brain homogenate; assay type: biochemical, Albino rats (Sprague Dawley strain); conditions: 37° C., 30 minutes
Procedure: Inhibition of Fe-ADP-ascorbate induced lipid peroxidation (LPO) in rat brain by DBP and DCPs
Albino rats (Sprague Dawley strain) were sacrificed by cervical dislocation and decapitation. Brains were dissected out and 10% w/v homogenate was prepared in 0.15 M KCl. The brain homogenate was centrifuged at 1500 rpm for 10 minutes and the supernatant was used for the study. The incubation mixture contained in a final volume of 1 ml., brain homogenate (500 μl), distilled water (100 μl) or test compounds dissolved in solvents at different concentrations (10 to 100 μg/ml of the final volume). Peroxidation was initiated by adding FeCl3 (100 μM), ADP (1 mM) and ascorbate (100 μM) to give the final concentration stated. After incubating at 37° C. for 30 minutes, the reaction was stopped by adding acetic acid buffer (1.5 ml, pH 3.5) and thiobarbituric acid solution (1.5 ml, pH 7.4) to 1 ml of LPO mixture. The reaction mixture was heated at 85° C. for 30 minutes, cooled, centrifuged (2000 rpm for 10 minutes) and the absorbance of the supernatant was measured at 532 nm. IC50 values were calculated in the usual way by plotting the concentration of the test compounds versus percent inhibition of LPO.

[2] = test system: adrenal gland ascorbic acid and corticosterone concentrations and plasma corticosterone level; test: CS induced alteration of adrenal gland ascorbic acid and corticosterone and plasma corticosterone (adrenocorticoid activity); assay type: in vivo, CF strain albino rats; conditions: 5 mg/kg p.o. + CS
Procedure: Animals The investigation was carried out on CF strain albino rats, of either sex (140-180 g), housed in colony cages at an ambient temperature of 25±2° C., with a 12 h. light/12 h. dark cycle. Experiments were conducted between 0900 and 1400 hrs. • EPA, Eicosapentaenoic acid • DHA, Docosahexaenoic acid • DBPs, 1:1 mixture of 3-hydroxy- and 3,8-dihydroxydibenzo-alpha-pyrone • DCPs, DBP-chromoproteins
The procedure of Armario et al (1993) was followed. Briefly, rats were randomly assigned to control or stress groups. Those assigned to the stress groups were subjected to 1 h foot shock, through a grid floor, every day for 14 days. The duration of each shock (2 mA) and the intervals between the shocks were randomly programmed between 3-5 sec. and 10-110 sec., respectively, to make the stress unpredictable. The shock chamber had high walls which made escape from shock impossible.
EPA (Aldrich, Milw.), DHA (Sigma), DBPs and DCPs were separately suspended/dissolved in 0.3% carboxymethylcellulose(CMC) in distilled water and administered orally (p.o.), for 14 days, starting on day 1, 60 min prior to electroshock. […]
Adrenal gland ascorbic acid (Zenker and Bernstein, 1958) and corticosterone concentrations (Selye, 1936), and plasma corticosterone levels (Selye, 1936) were determined to substantiate the validity and intensity of the stress procedure adopted.

[3] = test system: chronic stress (CS) induced gastric ulceration; test: Chronic stress (CS) induced gastric ulceration in albino rats; assay type: in vivo, CF strain albino rats; conditions: 14 days
Procedure: A comparative study of shilajit bioactive constituents from EPA, DHA, DBPs and DCPs, was carried out to determine their adaptogenic potency against chronic stress (CS) in albino rats. It is now increasingly becoming evident that CS of a mild but unpredictable nature which the animal is unable to cope with (inescapable stress), is clinically more relevant than acute stress even when the latter is severe in nature. It is believed that chronic, unpredictable, and inescapable stress resembles the situation faced by an individual that ultimately results in chronic stress-induced physiological perturbation and disease. Animals The investigation was carried out on CF strain albino rats, of either sex (140-180 g), housed in colony cages at an ambient temperature of 25±2° C., with a 12 h. light/12 h. dark cycle. […] The procedure of Armario et al (1993) was followed. Briefly, rats were randomly assigned to control or stress groups. Those assigned to the stress groups were subjected to 1 h foot shock, through a grid floor, every day for 14 days. The duration of each shock (2 mA) and the intervals between the shocks were randomly programmed between 3-5 sec. and 10-110 sec., respectively, to make the stress unpredictable. The shock chamber had high walls which made escape from shock impossible. EPA (Aldrich, Milw.), DHA (Sigma), DBPs and DCPs were separately suspended/dissolved in 0.3% carboxymethylcellulose(CMC) in distilled water and administered orally (p.o.), for 14 days, starting on day 1, 60 min prior to electroshock. Control animals received only the vehicle in either unstressed or the stressed rats for the same period in a volume of 2.5 ml/kg, p.o. Estimations were conducted on day 14, one hour after the last stress procedure and two hours after the last test compound or vehicle was administered. Gastric ulcerations (Bhattacharya et al., 1987). On day 14, rats were killed by decapitation the stomach was split open along the greater curvature and the numbers of discrete ulcers were noted. […] Thereafter, the pooled ulcer score was calculated according to the method of Bhattacharya et al. (1987).

IC50 (LPO) [1] [µg/mL]	Compound	Adrenal corticosterone [2] [μg/100 mg]	Plasma corticosterone [2] [µg/dL]	Ulcer incidence % ([3]; 5 mg/kg p.o.) [%]	Ulcer incidence % ([3]; 10 mg/kg p.o.) [%]
56	CC(=O)Oc1c(C)c(C)c2c(c1C)CCC(C)(CCC[C@H](C)CCC[C@H](C)CCCC(C)C)O2 (stereo partly drawn) [Vitamin E acetate]				
70 (≈ 397 µM)	O=C1O[C@H]([C@@H](O)CO)C(O)=C1O [Ascorbic acid]				
	CC/C=C\C/C=C\C/C=C\C/C=C\C/C=C\CCCC(=O)O [EPA, Eicosapentaenoic acid]	2.3 ± 0.8	22.1 ± 2.9	70	60
	CC/C=C\C/C=C\C/C=C\C/C=C\C/C=C\C/C=C\CCC(=O)O [DHA, Docosahexaenoic acid]			70	60
30 (≈ 131 µM)	O=c1oc2cc(O)ccc2c2ccc(O)cc12 [3,8-Dihydroxydibenzo-alpha-pyrone]				
